{"source": "patent US20250302846A1", "about": "“ANTIBIOTIC COMPOSITION AND METHODS OF USE THEREOF” (THE REGENTS OF THE UNIVERSITY OF COLORADO A BODY CORPORATE, priority 2022, published 2025)", "assay_type_in_all_cases": "cell-based", "key": {"[1]": {"tested_on": "S. Typhimurium (SL1344)", "assay": "Minimum inhibitory concentration determination in broth", "conditions": "for MIC50: Salmonella enterica, TYPHIMURIUM", "protocol": "A, B) Dose response curves monitoring S. Typhimurium (SL1344) or E. coli (K12) growth from an OD600 of 0.01, normalized to growth in 2% DMSO under the indicated condition. Mean and SEM of at least three biological replicates performed with technical triplicates; curve fit: sigmoidal, 4P L. C-E) Checkerboard assays of S. Typhimurium SL1344 growth from an OD600 of 0.01 in LB for 18 hours with novobiocin (up to 100 μg/mL) and (C) PMB (up to 48 μM), (D) JDI (up to 150 μM), or (E) D66 (up to 150 μM). Growth was normalized to growth in 2% DMSO, with the darkest blue representing 100% growth and white representing 0%.\nMinimum inhibitory concentration determination: Overnight LB-grown cultures were diluted in LB or MHB to an optical density (OD600) of 0.01 and distributed into polystyrene 96-well flat-bottom plates (Greiner, 655185). […] The final DMSO concentration was at or below 2%. Where indicated, PMB [0.5 μg/mL] was added prior to D66. Plates were grown at 37° C. with shaking and OD600 was monitored (BioTek Synergy H1 or BioTek Eon). MICs were defined as the concentration at which 95% of growth was inhibited (OD600)."}, "[2]": {"tested_on": "S. aureus (FDA209)", "assay": "Membrane voltage with DiSC3(5) in Gram-positive bacteria", "conditions": "mid-log S. aureus FDA209 in LB", "protocol": "A) D66 quenches the fluorescent dye DiSC3 (5) in a dose-dependent manner. Data were normalized to DMSO at time 0. Relative fluorescent units (RFU). Mean and SEM of three biological replicates performed with technical triplicates. B, C) Mid-log phase S. aureus (FDA209) in LB were treated at time 0 with DMSO, gramicidin [2 μg/mL], or D66 (1x MIC95=130 μM). B) Fold change in RFU. Data are normalized to DMSO at time 0. C) Data normalized to account for the quenching effect of D66 on DiSC3 (5) observed in A. Mean and SEM of three biological replicates performed with technical triplicates. D) Bacillus subtilis expressing mNeonGreen-FtsZ at stationary phase in LB were placed on agar pads containing D66 at the indicated concentration (1x MIC95=89 μM). Confocal microscope images were taken after 15 minutes to ascertain whether D66 disrupted the septal localization of FtsZ."}, "[3]": {"tested_on": "S. aureus FDA209", "assay": "Membrane permeability by PI fluorescence", "conditions": "mid-log S. aureus FDA209", "protocol": "Mid-log phase S. aureus FDA209 cells were used for all experiments. A) Membrane fluidity was evaluated with a Laurdan generalized polarization (GP) assay. Cells were exposed at time 0 to DMSO, benzyl alcohol (BnOH, a membrane fluidizer [50 mM]), or D66 (1x MIC95=130 μM). Mean and SEM of three biological replicates performed with technical triplicates. B) Membrane permeability was monitored by PI fluorescence. Cells were exposed at time 0 to DMSO, SDS [0.3%], or D66. Samples were processed at the timepoints shown. Mean and SEM of three biological replicates performed with technical triplicates. C) Intracellular pH was monitored with the fluorescent probe BCECF-AM. Cells were exposed at time 0 to DMSO, the protonophore CCCP [100 μM], or D66. Mean and SEM of three biological replicates performed with technical triplicates. D) Intracellular ATP levels measured using the Promega BacTiter-Glo kit after 30 minutes of treatment with DMSO, chloramphenicol (Chlor), or D66. Mean and SEM of three biological replicates performed with technical triplicates. E) Respiration rates of cells incubated with resazurin and treated at time 0 as indicated. Mean and […]"}}, "note": "Several values for one entry are separate records, joined by “and”; a condition that tells them apart may be missing. Identical values can stand only once. Like-named read-outs stand apart in the source and are kept apart here.", "data": [{"smiles": "O=C(Nc1cc(Cl)cc(Cl)c1)N1CCCN(Cc2ccccc2)CC1", "note": "[D66]", "values": [{"measurement": "growth inhibition in the presence of polymyxin B nonapeptide (PMBN)", "setting": "[1]; PMBN [20 μg/mL], MHB", "result": "did not enable D66 to inhibit growth"}, {"measurement": "cMIC95 in LB", "setting": "[1]; S. Typhimurium (SL1344) w/PMB (0.5 ug/mL), LB", "result": 54, "unit": "µM"}, {"measurement": "cMIC95 in MHB", "setting": "[1]; S. Typhimurium (SL1344) w/PMB (0.5 ug/mL), MHB", "result": 46, "unit": "µM"}, {"measurement": "cMIC95 in LB", "setting": "[1]; S. Typhimurium (SL1344), LB", "result": ">150", "unit": "µM"}, {"measurement": "cMIC95 in MHB", "setting": "[1]; S. Typhimurium (SL1344), MHB", "result": ">150", "unit": "µM"}, {"measurement": "MIC50", "setting": "[1]; S. Typhimurium (SL1344) w/PMB (0.5 ug/mL), LB, read-out: MIC50 in LB", "result": "45 µM and 17 µg/mL"}, {"measurement": "MIC50", "setting": "[1]; S. Typhimurium (SL1344) w/PMB (0.5 ug/mL), MHB, read-out: MIC50 in MHB", "result": "40 ± 1", "unit": "µM"}, {"measurement": "MIC50", "setting": "[1]; S. Typhimurium (SL1344), LB, read-out: MIC50 in LB", "result": "> 150 µM and > 57 µg/mL"}, {"measurement": "MIC50", "setting": "[1]; S. Typhimurium (SL1344), MHB, read-out: MIC50 in MHB", "result": "> 150", "unit": "µM"}, {"measurement": "voltage across the bacterial cytoplasmic membrane", "setting": "[2]", "result": "rapidly disrupts voltage across the bacterial cytoplasmic membrane"}, {"measurement": "cell membrane rupture (PI permeability)", "setting": "[3]", "result": "does not rupture the cell membrane"}]}]}
